pIC50: −log10 of the molar value.
Legend:
HPK1/GLK = assay: Selectivity of degrading HPK1/GLK in Jurkat cells (Western blot, 24 h); type: cell-based; conditions: HPK1/GLK Fold = DC50 (HPK1) / DC50 (GLK)
Procedure: • 1) Cell plating: Cells are resuscitated, Jurkat cell lines in good growth condition are selected, and cells in the logarithmic growth phase are collected and counted; cell suspensions are seeded into 12 or 24-well plates (20W/well) and incubated overnight at 37°C in a 5% CO2 incubator. • 2) Preparation of compounds to be tested: The compounds to be tested are serially diluted with DMSO according to the experimental requirements and added to the corresponding cell wells, to be incubated at 37°C in a 5% CO2 incubator for 24 h. • 3) Preparation of samples: After the reaction of the compound to be tested is completed, the cells are collected in 1.5 mL EP tubes, and centrifuged at 1500 rpm for 5 min; after the supernatant is discarded, the cells are washed once with PBS, and the BCA protein is quantified and the concentration is adjusted. The adjusted samples are added to 5*loading buffer, boiled at 100°C for 10 minutes, and then the samples are loaded after the temperature is returned to room temperature. • 4) Detection of samples: Electrophoresis is performed using 10% SDS-PAGE with a sample loading volume of 10 µL/well. After the membrane transfer is completed, the samples are blocked with 5% skim milk at room temperature for 1 h. After the residual blocking solution is washed away with TBST, HPK1 and GLK antibodies are added for incubation overnight at 4°C. Washing is performed 3 more times with TBST on a shaker, 5 minutes each time. After washing is completed, the secondary antibody is added for incubation at room temperature in a shaker for 1 hour; then, washing is performed 3 more times with TBST on a shaker, 5 minutes each time; finally, the membrane is soaked in TBST and then subjected to chemiluminescence development. • 5) Data Processing: After the PVDF membrane is developed, the data are exported and plotted using Imang J, and the gray values of the protein bands are analyzed using Image J software; the DC50 curve is fitted using Graphpad Prism 9 software to obtain the results of the selectivity of the compound in degrading HPK1/GLK: HPK1/GLK Fold = DC50 (HPK1) / DC50 (GLK) . Table 3 Selectivity of the compounds of the invention in degrading HPK1/GLK

HPK1 kinase [1] = target: T1, HPK1 kinase (Homo sapiens, UniProt Q92918); assay: Activity of degrading HPK1 in Jurkat cells (Western blot, 24 h); type: cell-based; design: endogenous in cells; host or cells: Jurkat; conditions: HPK1 protein degradation
Procedure: The adjusted samples are added to 5*loading buffer, boiled at 100°C for 10 minutes, and then the samples are loaded after the temperature is returned to room temperature. • 4) Detection of samples: Electrophoresis is performed using 10% SDS-PAGE with a sample loading volume of 8 µL/well. After the membrane transfer is completed, the samples are blocked with 5% BSA at room temperature for 1 h. After the residual blocking solution is washed away with TBST, HPK1 and GAPDH antibodies are added for incubation overnight at 4°C. Washing is performed 3 more times with TBST on a shaker, 10 minutes each time. After washing is completed, the secondary antibody is added for incubation at room temperature for 1 hour; then, washing is performed 3 more times with TBST on a shaker, 10 minutes each time; finally, ECL exposure solution is used to develop and image the bands to detect changes in HPK1 protein.

HPK1 kinase [2] = target: T1, HPK1 kinase; assay: Lantha screen assay, inhibitory effect on HPK1 kinase; type: biochemical; conditions: initial compound concentration 1 µM
Method in brief: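 Kinase pre-incubated with compound for 10 min at room temperature in 50 mM HEPES pH 7.5, 10 mM MgCl2, 4 mM DTT, 0.01% Tween-20, 0.01% BSA. Fluorescein-PKC substrate plus ATP then added for 90 min, stopped with antibody/EDTA for 60 min. Top concentration 1 µM; IC50 from four-parameter fit of inhibition vs log concentration.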

[3] = Pharmacokinetic properties in SD rats after gavage; type: in vivo; conditions: rat, po, 10 mg/kg, plasma
Procedure: The test compound is administered to SD rats by gavage at a dose of 10 mg/kg. Blood samples are collected at 0 h (before administration) and at 0.083, 0.25, 1, 2, 4, 6, 8, and 24 h after oral gavage administration. The samples are placed in anticoagulant tubes containing heparin sodium, and the mixture is thoroughly vortexed and centrifuged at 6000 rpm for 3 minutes. Plasma concentrations are determined by LC-MS/MS, and relevant pharmacokinetic parameters are calculated using Phoenix WinNonlin 8.2.0 pharmacokinetic software. Table 4 Pharmacokinetic properties of the compounds of the invention

T1 sequence (Q92918 whole entry): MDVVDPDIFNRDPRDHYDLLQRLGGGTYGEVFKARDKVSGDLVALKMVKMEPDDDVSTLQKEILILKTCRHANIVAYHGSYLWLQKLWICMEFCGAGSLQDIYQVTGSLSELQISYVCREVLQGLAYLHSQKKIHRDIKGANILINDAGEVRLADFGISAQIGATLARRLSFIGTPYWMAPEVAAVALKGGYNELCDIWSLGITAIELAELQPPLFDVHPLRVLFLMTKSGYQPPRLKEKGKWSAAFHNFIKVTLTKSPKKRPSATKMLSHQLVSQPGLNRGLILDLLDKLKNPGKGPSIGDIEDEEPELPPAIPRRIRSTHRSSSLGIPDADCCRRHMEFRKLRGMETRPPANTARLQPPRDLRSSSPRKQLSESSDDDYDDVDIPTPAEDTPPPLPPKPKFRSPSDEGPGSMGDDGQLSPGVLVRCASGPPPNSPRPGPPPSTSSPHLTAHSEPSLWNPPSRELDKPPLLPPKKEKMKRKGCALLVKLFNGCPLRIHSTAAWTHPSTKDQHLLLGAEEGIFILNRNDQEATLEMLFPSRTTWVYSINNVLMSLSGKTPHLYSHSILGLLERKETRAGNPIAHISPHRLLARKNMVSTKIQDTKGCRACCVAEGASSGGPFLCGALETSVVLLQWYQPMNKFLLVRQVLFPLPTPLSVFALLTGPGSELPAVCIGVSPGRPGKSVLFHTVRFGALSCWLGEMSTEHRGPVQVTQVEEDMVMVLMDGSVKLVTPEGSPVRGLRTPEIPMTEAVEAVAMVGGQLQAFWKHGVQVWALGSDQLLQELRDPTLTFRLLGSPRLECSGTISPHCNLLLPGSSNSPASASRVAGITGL

SMILES	HPK1/GLK Fold (HPK1/GLK)	DC50 (HPK1 kinase [1]; class symbols)	pIC50 (HPK1 kinase [2])	AUC [3]	DC50 (HPK1 kinase [1]; numeric values)
Cc1cc(N2CC(CN3CC=C(c4ccc(-c5cnc6[nH]cc(-c7ccc(C(=O)N(C)C)cc7)c6c5)cc4C(C)C)CC3)C2)ccc1N1CCC(=O)NC1=O [compound 129]	++++ (1000≤Fold)	< 10 nM	> 8.00	–	–
Cc1cc(-c2cnc3[nH]cc(-c4ccc(C(=O)N(C)C)cc4)c3n2)cc(C)c1C1=CCN(CC#Cc2cccc3c(C4CCC(=O)NC4=O)coc23)CC1 (centres unmarked) [compound 024]	++++ (1000≤Fold)	< 10 nM	> 8.00	12000 ng·h/mL	–
Cc1cc(-c2cnc3[nH]cc(-c4ccc(C(=O)N5CC6(COC6)C5)cc4)c3n2)cc(C)c1C1=CCN(CC2CN(c3ccc(N4CCC(=O)NC4=O)c(F)c3)C2)CC1 [compound 105]	++++ (1000≤Fold)	< 10 nM	> 8.00	–	–
Cc1cc(-c2cnc3[nH]cc(-c4ccc(C(=O)N(C)C)cc4)c3n2)cc(C)c1C1=CCN(CC2CN(c3ccc(C(=O)NC4CCC(=O)NC4=O)nc3)C2)CC1 (centres unmarked) [compound 016]	++++ (1000≤Fold)	< 10 nM	> 8.00	5000 ng·h/mL	–
O=C1CCN(c2cc(C(=O)N3CCC(CC4CCN(c5ccc(-c6cnc7[nH]cc(-c8cnn(CC(F)(F)F)c8)c7n6)cn5)CC4)CC3)ccc2Cl)C(=O)N1 [Compound a, reference compound]	–	–	–	3850 ng·h/mL	–
COCCCN(C)C(=O)c1ccc(-c2c[nH]c3ncc(-c4cc(C)c(C5=CCN(CC6CN(c7ccc(N8CCC(=O)NC8=O)c(C)c7)C6)CC5)c(C)c4)cc23)cc1 [compound 109]	++++ (1000≤Fold)	< 10 nM	> 8.00	–	–
Cc1cc(-c2cnc3[nH]cc(-c4ccc(C(=O)N(C)C)cc4)c3n2)cc(C)c1C1=CCN(CC2CN(c3ccc(C(=O)NC4CCC(=O)NC4=O)cc3)C2)CC1 (centres unmarked) [compound 081]	++++ (1000≤Fold)	< 10 nM	> 8.00	–	–
Cc1cc(-c2cnc3[nH]cc(-c4cncc5c4ncn5C)c3n2)cc(C)c1C1=CCN(CC2CN(c3cc(F)c(C4CCC(=O)NC4=O)c(F)c3)C2)CC1 (centres unmarked) [compound 057]	++++ (1000≤Fold)	–	> 8.00	11300 ng·h/mL	–
COc1ccc(C(=O)N2CC(N3CC=C(c4c(C)cc(-c5cnc6[nH]cc(-c7ccc(C(=O)N(C)C)cc7)c6n5)cc4C)CC3)C2)cc1N1CCC(=O)NC1=O [compound 061]	++++ (1000≤Fold)	–	> 8.00	–	–
Cc1cc(-c2cnc3[nH]cc(-c4ccc(C(=O)N(C)C)cc4)c3n2)cc(C)c1C1=CCN(CC2CCN(c3ccc(NC4CCC(=O)NC4=O)cc3F)CC2)CC1 (centres unmarked) [compound 018]	++++ (1000≤Fold)	< 10 nM	> 8.00	–	–
Cc1cc(-c2cnc3[nH]cc(-c4ccc(C(=O)N(C)C)cc4)c3n2)cc(C)c1C1=CCN(CC2CN(c3cc(F)c(N4CCC(=O)NC4=O)c(F)c3)C2)CC1 [compound 079]	++++ (1000≤Fold)	–	> 8.00	–	–
Cc1cc(-c2cnc3[nH]cc(-c4ccc(C(=O)N(C)C)cc4)c3n2)cc(C)c1C1=CCN(CC2CN(c3ccc(NC4CCC(=O)NC4=O)cc3F)C2)CC1 (centres unmarked) [compound 052]	++++ (1000≤Fold)	< 10 nM	–	6300 ng·h/mL	–
Cc1cc(-c2cnc3[nH]cc(-c4ccc(C(=O)N(C)CC(C)O)cc4)c3n2)cc(C)c1C1=CCN(CC2CN(c3ccc(N4CCC(=O)NC4=O)c(F)c3)C2)CC1 (centres unmarked) [compound 107]	++++ (1000≤Fold)	–	> 8.00	–	–
Cc1cc(-c2cnc3[nH]cc(-c4cnc(C(F)(F)F)s4)c3n2)cc(C)c1C1=CCN(CC2CN(c3ccc(N4CCC(=O)NC4=O)c(F)c3)C2)CC1 [compound 165]	++++ (1000≤Fold)	< 10 nM	> 8.00	–	–
Cc1cc(-c2cnc3[nH]cc(-c4ccc(C(=O)N(C)C)cc4)c3n2)cc(C)c1C1=CCN(C2CN(c3ccc(C(=O)NC4CCC(=O)NC4=O)cn3)C2)CC1 (centres unmarked) [compound 011]	++++ (1000≤Fold)	–	> 8.00	8990 ng·h/mL	–
Cc1cc(-c2cnc3[nH]cc(-c4ccc(C(=O)N(C)C)cc4)c3n2)cc(C)c1C1=CCN(CC2CN(c3cc4c(cc3F)c(N3CCC(=O)NC3=O)nn4C)C2)CC1 [compound 062]	++++ (1000≤Fold)	–	> 8.00	9920 ng·h/mL	–
Cc1cc(-c2cnc3[nH]cc(-n4cc(CC(F)(F)F)cn4)c3n2)cc(C)c1C1=CCN(CC2CN(c3ccc(N4CCC(=O)NC4=O)c(F)c3)C2)CC1 [compound 162]	++++ (1000≤Fold)	< 10 nM	> 8.00	–	–
Cc1cc(-c2cnc3[nH]cc(-c4ccc(C(=O)N(C)C)cc4)c3n2)cc(C)c1C1=CCN(CC2CN(c3ccc(C(=O)NC4CCC(=O)NC4=O)cn3)C2)CC1 (centres unmarked) [compound 089]	++++ (1000≤Fold)	–	> 8.00	–	–
Cc1cc(-c2cnc3[nH]cc(-c4ccc(C(=O)N(C)C)cc4)c3n2)cc(C)c1C1=CCN(C2CN(c3ccc(C(=O)NC4CCC(=O)NC4=O)nc3)C2)CC1 (centres unmarked) [compound 012]	++++ (1000≤Fold)	–	> 8.00	–	–
Cc1cc(-c2cnc3[nH]cc(-n4cc(F)cn4)c3n2)cc(C)c1C1=CCN(CC2CN(c3ccc(N4CCC(=O)NC4=O)c(F)c3)C2)CC1 [compound 163]	++++ (1000≤Fold)	< 10 nM	> 8.00	–	–
Cc1cc(-c2cnc3[nH]cc(-c4ccc(C(=O)N(C)C)cc4)c3c2)cc(C)c1C1=CCN(CC2CN(C(=O)c3ccc(Cl)c(N4CCC(=O)NC4=O)c3)C2)CC1 [compound 130]	++++ (1000≤Fold)	–	> 8.00	–	–
Cc1cc(N2CC(C(C)N3CC=C(c4c(C)cc(-c5cnc6[nH]cc(-c7ccc(C(=O)N(C)C)cc7)c6n5)cc4C)CC3)C2)ccc1N1CCC(=O)NC1=O (centres unmarked) [compound 042]	++++ (1000≤Fold)	–	> 8.00	–	–
Cc1cc(N2CC(CN3CC=C(c4c(C)cc(-c5cnc6[nH]cc(-c7ccc8c(c7)CCN(C)C8=O)c6c5)cc4C)CC3)C2)ccc1N1CCC(=O)NC1=O [compound 099]	++++ (1000≤Fold)	< 10 nM	> 8.00	–	–
Cc1cc(N2CCC(CN3CC=C(c4c(C)cc(-c5cnc6[nH]cc(-c7ccc(C(=O)N(C)C)cc7)c6n5)cc4C)CC3)CC2)ccc1N1CCC(=O)NC1=O [compound 113]	++++ (1000≤Fold)	< 10 nM	> 8.00	–	–
Cc1cc(N2CC(CN3CC=C(c4c(C)cc(-c5cnc6[nH]cc(-c7cnn(C8CCN(CC(F)F)CC8)c7)c6c5)cc4C)CC3)C2)ccc1N1CCC(=O)NC1=O [compound 110]	–	–	> 8.00	4070 ng·h/mL	12.4 nM
Cc1cc(-c2cnc3[nH]cc(-c4cnc5cc(F)ccn45)c3n2)cc(C)c1C1=CCN(CC2CN(c3ccc(N4CCC(=O)NC4=O)c(F)c3)C2)CC1 [compound 167]	++++ (1000≤Fold)	< 10 nM	> 8.00	–	–
Cc1cc(-c2cnc3[nH]cc(-n4cc(C5CC5)cn4)c3n2)cc(C)c1C1=CCN(CC2CN(c3ccc(N4CCC(=O)NC4=O)c(F)c3)C2)CC1 [compound 160]	++++ (1000≤Fold)	< 10 nM	> 8.00	–	–
Cc1cc(-c2cnc3[nH]cc(-c4ccc(C(=O)N(C)C)cc4)c3n2)cc(C)c1C1=CCN(CC2CN(c3ccc(OC4CCC(=O)NC4=O)cn3)C2)CC1 (centres unmarked) [compound 086]	++++ (1000≤Fold)	–	> 8.00	8500 ng·h/mL	–

Source: patent EP4813992A1, “POLYARYL DERIVATIVE AND USE THEREOF” (Hangzhou HealZen Therapeutics Co., Ltd., priority 2023, dated 2025)
